Data from patent EP3406693B1, “FREEZER OIL FOR R32 REFRIGERANT AND COMPOSITION COMPRISING SAME” (NOF Corporation, priority 2016, dated 2017).

Key:
Format in all cases: physicochemical
[1] = Cloud point of additive in 1,1,1,3,3-pentafluorobutane/ethyl acetate (JIS 2269); conditions: 10 mass % in 1,1,1,3,3-pentafluorobutane/ethyl acetate 75/25 (mass ratio)
Procedure: As the aforementioned additive, any can be used as long as it has a cloud point of not less than -30°C when measured under the aforementioned conditions. Only one kind of the aforementioned additive may be used or two or more kinds thereof may be used in combination. […] The cloud point of the aforementioned additive as measured under the above-mentioned conditions is preferably not less than -20°C, more preferably not less than -15°C. The cloud point can be measured according to JIS 2269 "Testing Methods for Pour Point and Cloud Point of Crude Oil and Petroleum Products".
The cloud point when the additive (triphenyl phosphate and glycerol monooleate) used in the production of the below-mentioned refrigerating machine oil composition was dissolved at a concentration of 10 mass % in a mixed solvent of 1,1,1,3,3-pentafluorobutane and ethyl acetate at a mass ratio (1,1,1,3,3-pentafluorobutane/ethyl acetate) of 75/25 was measured according to JIS 2269. The cloud point of triphenyl phosphate measured under these conditions was -3°C and the cloud point of glycerol monooleate was 25°C.

[2] = Two-layer separation temperature of ester A1 to A8 and R32 refrigerant; conditions: ester 2 g + R32 refrigerant 6 g, range -60°C to +40°C
Procedure: Using the aforementioned ester A1 to ester A8 as a refrigerating machine oil, a two-layer separation temperature of ester A1 to ester A8 and R32 refrigerant was measured as follows. To be specific, any of ester A1 to ester A8 (2 g) and R32 refrigerant (6 g) were sealed in a pressure-resistant glass tube and cooled from 40°C at a rate of 1°C/min by using an ethanol bath containing dry ice. The temperature at which ester and R32 refrigerant was separated in two layers was measured within the range of -60°C to +40°C by visual observation. One with a two-layer separation temperature of +40°C or above was evaluated as ×, +40°C to -10°C as ○, and - 10°C or below as ⊙.

[3] = Acid number (JIS C2101)
Procedure: According to JIS C2101, the acid number of ester A1 and the like was measured.

[4] = Pour point (JIS K2269)
Procedure: According to JIS K2269, the pour point of ester A1 and the like was measured.

two-layer separation temperature ([2]; cooled from 40°C at 1°C/min, visual) [°C] | two-layer separation temperature (evaluation) [2] | acid number [3] | pour point [4] [°C] | Compound | cloud point [1] [°C]
 |  |  |  | CCCCCCCC/C=C\CCCCCCCC(=O)OCC(O)CO (stereo not drawn) [glycerol monooleate] | 25
 |  |  |  | O=P(Oc1ccccc1)(Oc1ccccc1)Oc1ccccc1 [triphenyl phosphate] | -3
≤ -60 | ⊙ (- 10 °C or below as ⊙) | 0.1 or below mgKOH/g | -50 | CCCCOC(=O)CC(O)(CC(=O)OCCCC)C(=O)OCCCC [ester A6] | 
